# Experimental data taken from US11331289B2, “Antimicrobial composition” (priority 2017, dated 2022).
# Columns and labels:
# [1] = tested on: S. pseudointermedius n°15 401; test: Time-killing curve, broth macrodilution; format: cell-based, Staphylococcus pseudintermedius
# Method: (§1) The time-killing curve is used to determine the bactericidal or bacteriostatic activity of the antibimicrobial substances. Time-killing curves of Oxyclozanide against canine isolates of Staphylococcus aureus and Staphylococcus pseudintermedius were obtained using broth macrodilution method. After contact of different fixed amounts of Oxyclozanide with an inoculum, viable bacteria are counted immediately after contact and after 1, 3, 6 and 24 hours. Counting is performed on agar medium without antimicrobial substance.
# (§2) Results are analyzed by plotting log10 CFU/ml versus time for each tested concentration. Bactericidal activity as defined by 99.9% killing of the inoculum is determined from time-killing curves by noting the presence of a ≥3 log10 decrease in CFU/ml.
# (§3) Bacterial strains were sub-cultured twice from one cryobead on Mueller Hinton agar and incubated at 37° C. for 18-24 hours. From the second subcultures, isolated colonies were transferred into tubes containing 2 ml of Mueller Hinton Broth in order to obtain bacterial suspensions at 10^8 CFU/ml, knowing that an optical density of 0.1 at 620 nm corresponds to bacterial suspension at 10^8 CFU/ml. Then, bacterial suspensions were adjusted between 5 10^7 and 1 10^8 CFU/ml by dilution in Mueller Hinton broth.
# (§4) For each concentration of Oxyclozanide to be tested, 50 μl of working solution concentrated 100× and […] of inoculum were added to 5 ml of Mueller-Hinton broth. Thus, the range of tested concentrations was from 0.125 to 8 μg/ml and the concentration of micro-organism was between 1 10^6 and 2 10^6 CFU/ml.
# (§5) At the same time, a tube without Oxyclozanide was prepared: 50 μl of DMSO and 100 μl of inoculum were added to 5 ml of Mueller-Hinton broth and used as growth control. Tubes were incubated at 36° C. under agitation.
# (§6) The numbers of viable bacteria were determined immediately after contact (TO) and after 1, 3, 6 and 24 h of incubation.
# (§7) At each time, samples of each tube were taken and dilutions were performed in Mueller-Hinton broth. Then, dilutions were spread on Mueller Hinton agar with spiral plater. After 18 h of incubation at 36° C., counting of colonies was performed with automatic colony counter which determine the concentrations of viable bacteria. The technique employed made it possible to quantify bacterial concentrations as low as 20 CFU/ml.
# (§8) Time-killing curves were plotted for each concentration of Oxyclozanide using Microsoft Excel software. The number or surviving bacteria was expressed as log10 CFU/ml. The time-killing curves of each strain represent the decrease in the viable bacteria count as a function of time for the Oxyclozanide concentrations concerned.
# (§9) Bactericidal activity as defined by 99.9% killing of the inoculum is determined from time-killing curves by noting the presence of a ≥3 log10 decrease in CFU/ml.
# [2] = tested on: S. pseudointermedius n°15 410; test: Time-killing curve, broth macrodilution; format: cell-based, Staphylococcus pseudintermedius
# Method: as §1, §2, §3, §4, §5, §6, §7, §8, §9
structure (smiles),measurement,setting,value
O=C(Nc1cc(Cl)cc(Cl)c1O)c1c(O)c(Cl)cc(Cl)c1Cl [Oxyclozanide],Viable bacteria count,"[1]; 0.125 μg/ml (MIC), 0 h",5.9 Log10 CFU/ml
same,Bacteria reducing rate,"[1]; 0.125 μg/ml (MIC), 1 h",0.3 Δ log10 CFU/ml
same,Bacteria reducing rate,"[1]; 0.125 μg/ml (MIC), 3 h",1.2 Δ log10 CFU/ml
same,Bacteria reducing rate,"[1]; 0.125 μg/ml (MIC), 6 h",2.2 Δ log10 CFU/ml
same,Bacteria reducing rate,"[1]; 0.125 μg/ml (MIC), 24 h",2.8 Δ log10 CFU/ml
same,Viable bacteria count,"[1]; 0.125 μg/ml (MIC), 24 h",8.7 Log10 CFU/ml
same,Viable bacteria count,"[1]; 0.25 μg/ml (2 MIC), 0 h",6.0 Log10 CFU/ml
same,Bacteria reducing rate,"[1]; 0.25 μg/ml (2 MIC), 1 h",0.1 Δ log10 CFU/ml
same,Bacteria reducing rate,"[1]; 0.25 μg/ml (2 MIC), 3 h",0.8 Δ log10 CFU/ml
same,Viable bacteria count,"[1]; 0.25 μg/ml (2 MIC), 3 h",6.8 Log10 CFU/ml
same,Bacteria reducing rate,"[1]; 0.25 μg/ml (2 MIC), 6 h",2.2 Δ log10 CFU/ml
same,Bacteria reducing rate,"[1]; 0.25 μg/ml (2 MIC), 24 h",1.3 Δ log10 CFU/ml
same,Viable bacteria count,"[1]; 0.5 μg/ml (4 MIC), 0 h",6.0 Log10 CFU/ml
same,Bacteria reducing rate,"[1]; 0.5 μg/ml (4 MIC), 1 h",0.1 Δ log10 CFU/ml
same,Bacteria reducing rate,"[1]; 0.5 μg/ml (4 MIC), 3 h",0.4 Δ log10 CFU/ml
same,Bacteria reducing rate,"[1]; 0.5 μg/ml (4 MIC), 6 h",1.6 Δ log10 CFU/ml
same,Bacteria reducing rate,"[1]; 0.5 μg/ml (4 MIC), 24 h",1.4 Δ log10 CFU/ml
same,Viable bacteria count,"[1]; 1 μg/ml (8 MIC), 0 h",6.0 Log10 CFU/ml
same,Bacteria reducing rate,"[1]; 1 μg/ml (8 MIC), 1 h",0.1 Δ log10 CFU/ml
same,Bacteria reducing rate,"[1]; 1 μg/ml (8 MIC), 3 h",0.0 Δ log10 CFU/ml
same,Viable bacteria count,"[1]; 1 μg/ml (8 MIC), 3 h",6.0 Log10 CFU/ml
same,Bacteria reducing rate,"[1]; 1 μg/ml (8 MIC), 6 h",0.2 Δ log10 CFU/ml
same,Bacteria reducing rate,"[1]; 1 μg/ml (8 MIC), 24 h",0.7 Δ log10 CFU/ml
same,Viable bacteria count,"[1]; 1 μg/ml (8 MIC), 24 h",6.7 Log10 CFU/ml
same,Viable bacteria count,"[1]; 2 μg/ml (16 MIC), 0 h",6.0 Log10 CFU/ml
same,Bacteria reducing rate,"[1]; 2 μg/ml (16 MIC), 1 h",−0.1 Δ log10 CFU/ml
same,Viable bacteria count,"[1]; 2 μg/ml (16 MIC), 1 h",5.9 Log10 CFU/ml
same,Bacteria reducing rate,"[1]; 2 μg/ml (16 MIC), 3 h",−0.1 Δ log10 CFU/ml
same,Viable bacteria count,"[1]; 2 μg/ml (16 MIC), 3 h",5.9 Log10 CFU/ml
same,Bacteria reducing rate,"[1]; 2 μg/ml (16 MIC), 6 h",0.3 Δ log10 CFU/ml
same,Bacteria reducing rate,"[1]; 2 μg/ml (16 MIC), 24 h",−0.1 Δ log10 CFU/ml
same,Viable bacteria count,"[1]; 2 μg/ml (16 MIC), 24 h",5.9 Log10 CFU/ml
same,Viable bacteria count,"[1]; 4 μg/ml (32 MIC), 0 h",5.9 Log10 CFU/ml
same,Bacteria reducing rate,"[1]; 4 μg/ml (32 MIC), 1 h",0.1 Δ log10 CFU/ml
same,Viable bacteria count,"[1]; 4 μg/ml (32 MIC), 1 h",6.0 Log10 CFU/ml
same,Bacteria reducing rate,"[1]; 4 μg/ml (32 MIC), 3 h",0.0 Δ log10 CFU/ml
same,Viable bacteria count,"[1]; 4 μg/ml (32 MIC), 3 h",5.9 Log10 CFU/ml
same,Bacteria reducing rate,"[1]; 4 μg/ml (32 MIC), 6 h",−0.7 Δ log10 CFU/ml
same,Bacteria reducing rate,"[1]; 4 μg/ml (32 MIC), 24 h",−3.4 Δ log10 CFU/ml
same,Viable bacteria count,"[1]; 4 μg/ml (32 MIC), 24 h",2.5 Log10 CFU/ml
same,Viable bacteria count,"[1]; 8 μg/ml (64 MIC), 0 h",6.0 Log10 CFU/ml
same,Bacteria reducing rate,"[1]; 8 μg/ml (64 MIC), 1 h",−0.4 Δ log10 CFU/ml
same,Viable bacteria count,"[1]; 8 μg/ml (64 MIC), 1 h",5.6 Log10 CFU/ml
same,Bacteria reducing rate,"[1]; 8 μg/ml (64 MIC), 3 h",−2.7 Δ log10 CFU/ml
same,Viable bacteria count,"[1]; 8 μg/ml (64 MIC), 3 h",3.3 Log10 CFU/ml
same,Bacteria reducing rate,"[1]; 8 μg/ml (64 MIC), 6 h",−4.4 Δ log10 CFU/ml
same,Bacteria reducing rate,"[1]; 8 μg/ml (64 MIC), 24 h",−4.7 Δ log10 CFU/ml
same,Bacteria reducing rate,"[2]; 0.125 μg/ml (MIC), 1 h",0.2 Δ log10 CFU/ml
same,Bacteria reducing rate,"[2]; 0.125 μg/ml (MIC), 3 h",1.1 Δ log10 CFU/ml
same,Bacteria reducing rate,"[2]; 0.125 μg/ml (MIC), 6 h",2.3 Δ log10 CFU/ml
same,Bacteria reducing rate,"[2]; 0.125 μg/ml (MIC), 24 h",2.9 Δ log10 CFU/ml
same,Bacteria reducing rate,"[2]; 0.25 μg/ml (2 MIC), 1 h",0.1 Δ log10 CFU/ml
same,Bacteria reducing rate,"[2]; 0.25 μg/ml (2 MIC), 3 h",1.1 Δ log10 CFU/ml
same,Bacteria reducing rate,"[2]; 0.25 μg/ml (2 MIC), 6 h",2.3 Δ log10 CFU/ml
same,Bacteria reducing rate,"[2]; 0.25 μg/ml (2 MIC), 24 h",1.1 Δ log10 CFU/ml
same,Bacteria reducing rate,"[2]; 0.5 μg/ml (4 MIC), 1 h",0.1 Δ log10 CFU/ml
same,Bacteria reducing rate,"[2]; 0.5 μg/ml (4 MIC), 3 h",1.1 Δ log10 CFU/ml
same,Bacteria reducing rate,"[2]; 0.5 μg/ml (4 MIC), 6 h",2.1 Δ log10 CFU/ml
same,Bacteria reducing rate,"[2]; 0.5 μg/ml (4 MIC), 24 h",1.1 Δ log10 CFU/ml
same,Bacteria reducing rate,"[2]; 1 μg/ml (8 MIC), 1 h",0.1 Δ log10 CFU/ml
same,Bacteria reducing rate,"[2]; 1 μg/ml (8 MIC), 3 h",0.1 Δ log10 CFU/ml
same,Bacteria reducing rate,"[2]; 1 μg/ml (8 MIC), 6 h",0.1 Δ log10 CFU/ml
same,Bacteria reducing rate,"[2]; 1 μg/ml (8 MIC), 24 h",0.4 Δ log10 CFU/ml
same,Viable bacteria count,"[2]; 1 μg/ml (8 MIC), 24 h",6.7 Log10 CFU/ml
same,Bacteria reducing rate,"[2]; 2 μg/ml (16 MIC), 1 h",0.0 Δ log10 CFU/ml
same,Bacteria reducing rate,"[2]; 2 μg/ml (16 MIC), 3 h",−0.1 Δ log10 CFU/ml
same,Bacteria reducing rate,"[2]; 2 μg/ml (16 MIC), 6 h",−0.9 Δ log10 CFU/ml
same,Bacteria reducing rate,"[2]; 2 μg/ml (16 MIC), 24 h",−1.7 Δ log10 CFU/ml
same,Viable bacteria count,"[2]; 2 μg/ml (16 MIC), 24 h",4.6 Log10 CFU/ml
same,Bacteria reducing rate,"[2]; 4 μg/ml (32 MIC), 1 h",−0.2 Δ log10 CFU/ml
same,Bacteria reducing rate,"[2]; 4 μg/ml (32 MIC), 3 h",−0.1 Δ log10 CFU/ml
same,Bacteria reducing rate,"[2]; 4 μg/ml (32 MIC), 6 h",−1.2 Δ log10 CFU/ml
same,Bacteria reducing rate,"[2]; 4 μg/ml (32 MIC), 24 h",−3.9 Δ log10 CFU/ml
same,Viable bacteria count,"[2]; 4 μg/ml (32 MIC), 24 h",2.4 Log10 CFU/ml
same,Bacteria reducing rate,"[2]; 8 μg/ml (64 MIC), 1 h",−0.2 Δ log10 CFU/ml
same,Bacteria reducing rate,"[2]; 8 μg/ml (64 MIC), 3 h",−1.6 Δ log10 CFU/ml
same,Viable bacteria count,"[2]; 8 μg/ml (64 MIC), 3 h",4.7 Log10 CFU/ml
same,Bacteria reducing rate,"[2]; 8 μg/ml (64 MIC), 6 h",−3.7 Δ log10 CFU/ml
same,Viable bacteria count,"[2]; 8 μg/ml (64 MIC), 6 h",2.6 Log10 CFU/ml
same,Bacteria reducing rate,"[2]; 8 μg/ml (64 MIC), 24 h",−5.0 Δ log10 CFU/ml
